This note sets out measurements from patent publication US8354419B2, “Benzimidazole analogues for the treatment or prevention of flavivirus infections” (Vertex Pharmaceuticals Incorporated, priority 2009, dated 2013).

The subject of the assay is HCV (Ib) RNA replication. As to the kind of experiment: Cell-based luciferase reporter HCV (1b) RNA replication assay (replicon cell lines Huh-7 5.2 and ET). Also on record: species or system Hepatitis C virus. The conditions noted are these: Hepatitis C virus, Huh-7, 96 h, HCV 1b genotype replicon, luciferase readout, 4 days incubation; read-out: EC50_1b. An excerpt: Cell-Based Luciferase Reporter HCV (Ib) RNA Replication Assay Cell Culture
Replicon cell lines Huh-7, 5.2 and ET which are derived from the Huh-7 hepatocarcinoma cell line are maintained in culture as generally described in Krieger, N; Lohmann, V; Bartenschlager, R. Enhancement of hepatitis C virus RNA replication by cell culture-adaptive mutations. J. Virol. 2001, 75, 4614-4624. The Huh-7, 5.2 cells contain the highly cell culture-adapted replicon I389luc-ubi-neo/NS3-3′/5.1 construct that carries, in addition to the neomycin gene, an integrated copy to the firefly luciferase gene (Krieger, N; Lohmann, V; Bartenschlager, R. Enhancement of hepatitis C virus RNA replication by cell culture-adaptive mutations. J. Virol. 2001, 75, 4614-4624). This cell line allows measurement of HCV RNA replication and translation by measuring luciferase activity. It has been previously shown that the luciferase activity tightly follows the replicon RNA level in these cells (Krieger, N; Lohmann, V; Bartenschlager, R. Enhancement of hepatitis C virus RNA replication by cell culture-adaptive mutations. J. Virol. 2001, 75, 4614-4624). The Huh-7, ET cell line has the same features as those mentioned for Huh-7, 5.2 cell line, except that ET cells are more robust and contain an adaptative mutation in the HCV NS4B gene instead of NS5A. Both cell lines are maintained in cultures at a sub-confluent level (<85%) as the level of replicon RNA is highest in actively proliferating cells. The culture media used for cell passaging consist of DMEM (Gibco BRL Laboratories, Mississauga, ON, Canada) supplemented with 10% foetal bovine serum with 1% penicillin/streptomycin, 1% glutamine, 1% sodium pyruvate, 1% non-essential amino acids, and 180 ug/ml of G418 final concentration. Cells are incubated at 37° C., in an atmosphere of 5% CO2 and passaged twice a week to maintain sub-confluence.
Approximately 3000 viable Huh-7, 5.2 or ET cells (100 μl) are plated per well in a white opaque 96-well microtiter plate. The cell culture media used for the assay is the same as described above except that it contains no G418 and no phenol red. After an incubation period of 3-4 hours at 37° C. in a 5% CO2 incubator, compounds (100 μl) are added at various concentrations. Cells are then further incubated for 4 days at 37° C. in a 5% CO2 incubator. Thereafter, the culture media is removed and cells are lysed by the addition of 95 μL of the luciferase buffer (luciferin substrate in buffered detergent). Cell lysates are incubated at room temperature and protected from direct light for at least 10 minutes. Plates are read for luciferase counts using a luminometer (Wallac MicroBeta Trilux, Perkin ELmer™, MA, USA).
The 50% inhibitory concentrations (IC50s) for inhibitory effect are determined from dose response curves using eleven concentrations per compound in duplicate. Curves are fitted to data points using nonlinear regression analysis, and IC50s are interpolated from the resulting curve using GraphPad Prism software, version 2.0 (GraphPad Software Inc., San Diego, Calif., USA).
Table 2 show compounds representative of the present invention and the EC50 values against the HCV 1b genotype.

Each structure is given as a SMILES string.

In the case of `O=C([C@H]1CCCO1)N1CCC[C@H]1c1nc2cc(C#Cc3ccc4nc([C@@H]5CCCN5C(=O)[C@H]5CCCO5)[nH]c4c3)ccc2[nH]1` [Compound 32, [(S)-5-(5-{2-[(S)-1-((R)-tetrahydro-furan-2-carbonyl)-pyrrolidin-2-yl]-1H-benzoimidazol-5-ylethynyl}-1H-benzoimidazol-2-yl)-pyrrolidin-1-yl]-(R)-tetrahydro-furan-2-yl-methanone], the EC50 lay in the range of 5 to 5000 nM.
On to `COC(=O)N[C@@H](C(=O)N1CCC[C@H]1c1nc2cc(C#Cc3ccc4[nH]c([C@@H]5CCCN5C(=O)[C@H](NC(=O)OC)c5ccccc5)nc4c3)ccc2[nH]1)c1ccccc1` [Compound 33, {(R)-2-[(S)-2-(5-{2-[(S)-1-((R)-2-Methoxycarbonylamino-2-phenyl-acetyl)-pyrrolidin-2-yl]-1H-benzoimidazol-5-ylethynyl}-1H-benzoimidazol-2-yl)-pyrrolidin-1-yl]-2-oxo-1-phenyl-ethyl}-carbamic acid methylester], for which the EC50 was no more than 5 nM.
The result for `COC(=O)N[C@H](C(=O)N1CCC[C@H]1c1nc2cc(C#Cc3ccc4[nH]c([C@@H]5CCCN5C(=O)OC(C)(C)C)nc4c3)ccc2[nH]1)C(C)C` [Compound 34, (S)-2-(5-{2-[(S)-1-((S)-2-Methoxycarbonylamino-3-methyl-butyryl)-pyrrolidin-2-yl]-1H-benzoimidazol-5-ylethynyl}-1H-benzoimidazol-2-yl)-pyrrolidine-1-carboxylic acid tert-butyl ester] reads 5 to 5000 nM.
The result for `COC(=O)N[C@H](C(=O)N1CCC[C@H]1c1nc2cc(C#Cc3ccc4[nH]c([C@@H]5CCCN5C(=O)[C@@H](NC(=O)OC)C(C)(C)C)nc4c3)ccc2[nH]1)C(C)C` [Compound 36, {(S)-1-[(S)-2-(5-{2-[(S)-1-((S)-2-Methoxycarbonylamino-3-methyl-butyryl)-pyrrolidin-2-yl]-1H-benzoimidazol-5-ylethynyl}-1H-benzoimidazol-2-yl)-pyrrolidine-1-carbonyl]-2,2-dimethyl-propyl}-carbamic acid methyl ester] reads no more than 5 nM; that for `COC(=O)N[C@H](C(=O)N1CCC[C@H]1c1nc2cc(C#Cc3ccc4[nH]c([C@@H]5CCCN5C(=O)[C@@H](NC(=O)OC)C(C)C)nc4c3)ccc2[nH]1)C(C)C` [Compound 37, {(S)-1-[(S)-2-(5-{2-[(S)-1-((S)-2-Methoxycarbonylamino-3-methyl-butyryl)-pyrrolidin-2-yl]-1H-benzoimidazol-5-ylethynyl}-1H-benzoimidazol-2-yl)-pyrrolidine-1-carbonyl]-2-methyl-propyl}-carbamic acid methyl ester], no more than 5 nM.
`COC(=O)N[C@H](C(=O)N1CCC[C@H]1c1nc2cc(C#Cc3ccc4[nH]c([C@@H]5CCCN5C(=O)[C@H]5CCCO5)nc4c3)ccc2[nH]1)C(C)C` [Compound 38, {(S)-2-Methyl-1-[(S)-2-(5-{2-[(S)-1-((R)-tetrahydro-furan-2-carbonyl)-pyrrolidin-2-yl]-1H-benzoimidazol-5-ylethynyl}-1H-benzoimidazol-2-yl)-pyrrolidine-1-carbonyl]-propyl}-carbamic acid methyl ester]: the EC50 was no more than 5 nM.
The result for `COC(=O)N[C@H](C(=O)N1CCC[C@H]1c1nc2cc(C#Cc3ccc4[nH]c([C@@H]5CCCN5C(=O)[C@H](NC(=O)OC)c5ccccc5)nc4c3)ccc2[nH]1)C(C)C` [Compound 39, {(S)-1-[(S)-2-(5-{2-[(S)-1-((R)-2-Methoxycarbonylamino-2-phenyl-acetyl)-pyrrolidin-2-yl]-1H-benzoimidazol-5-ylethynyl}-1H-benzoimidazol-2-yl)-pyrrolidine-1-carbonyl]-2-methyl-propyl}-carbamic acid methyl ester] reads no more than 5 nM; that for `O=C(OCc1ccccc1)N1CCCC[C@H]1c1nc2cc(C#C/C=C/c3ccc4[nH]c([C@@H]5CCCCN5C(=O)OCc5ccccc5)nc4c3)ccc2[nH]1` [Compound 40, (S)-2-(5-{(E)-4-[2-((S)-1-Benzyloxycarbonyl-piperidin-2-yl)-1H-benzoimidazol-5-yl]-but-1-en-3-ynyl}-1H-benzoimidazol-2-yl)-piperidine-1-carboxylic acid benzyl ester], 5 to 5000 nM; that for `O=C(OCc1ccccc1)N1CCCC[C@H]1c1nc2cc(C#CC#Cc3ccc4[nH]c([C@@H]5CCCCN5C(=O)OCc5ccccc5)nc4c3)ccc2[nH]1` [Compound 41, (S)-2-(5-{4-[2-((S)-1-Benzyloxycarbonyl-piperidin-2-yl)-1H-benzoimidazol-5-yl]-buta-1,3-diynyl}-1H-benzoimidazol-2-yl)-piperidine-1-carboxylic acid benzyl ester], 5 to 5000 nM.
The result for `COC(=O)N[C@H](C(=O)N1CCC[C@H]1c1nc2cc(-c3cc(F)c(-c4ccc5nc([C@@H]6CCCN6C(=O)[C@@H](NC(=O)OC)C(C)C)[nH]c5c4)cc3F)ccc2[nH]1)C(C)C` [Compound 42, ((S)-1-{(S)-2-[5-(4-{2-[(S)-1-((S)-2-Methoxycarbonylamino-3-methyl-butyryl)-pyrrolidin-2-yl]-1H-benzoimidazol-5-yl}-2,5-difluoro-phenyl)-1H-benzoimidazol-2-yl]-pyrrolidine-1-carbonyl}-2-methyl-propyl)-carbamicacid methyl ester] reads no more than 5 nM; that for `COC(=O)N[C@H](C(=O)N1CCC[C@H]1c1nc2cc(-c3cnc(-c4ccc5[nH]c([C@@H]6CCCN6C(=O)[C@@H](NC(=O)OC)C(C)C)nc5c4)c(C)c3)ccc2[nH]1)C(C)C` [Compound 43, Methyl N-[(1S)-1-[(2S)-2-[5-[5-[2-[(2S)-1-[(2S)-2-(methoxycarbonylamino)-3-methyl-butanoyl]pyrrolidin-2-yl]-1H-benzimidazol-5-yl]-3-methyl-2-pyridyl]-1H-benzimidazol-2-yl]pyrrolidine-1-carbonyl]-2-methyl-propyl]carbamate], no more than 5 nM.
The result for `COC(=O)N[C@H](C(=O)N1CCC[C@H]1c1nc2cc(-c3cscc3-c3ccc4[nH]c([C@@H]5CCCN5C(=O)[C@@H](NC(=O)OC)C(C)C)nc4c3)ccc2[nH]1)C(C)C` [Compound 44, Dimethyl-(2S,2′S)-1,1′-((2S,2′S)-2,2′-(5,5′-(thiophene-3,4-diyl)bis(1H-benzo[d]imidazole-5,2-diyl))bis(pyrrolidine-2,1-diyl))bis(3-methyl-1-oxobutane-2,1-diyl)dicarbamate] reads no more than 5 nM.
As for `CC(C)[C@H](NC(=O)O[C@H]1CCOC1)C(=O)N1CCC[C@H]1c1nc2cc(-c3cscc3-c3ccc4[nH]c([C@@H]5CCCN5C(=O)[C@@H](NC(=O)O[C@H]5CCOC5)C(C)C)nc4c3)ccc2[nH]1` [Compound 45, bis((S)-tetrahydrofuran-3-yl)-(2S,2′S)-1,1′-((2S,2′S)-2,2′-(5,5′-(thiophene-3,4-diyl)bis(1H-benzo[d]imidazole-5,2-diyl))bis(pyrrolidine-2,1-diyl))bis(3-methyl-1-oxobutane-2,1-diyl)dicarbamate], the EC50 lay within 5 to 5000 nM.
Take `CC(C)[C@H](NC(=O)O[C@H]1CCOC1)C(=O)N1CCC[C@H]1c1nc2cc(-c3ccsc3-c3ccc4[nH]c([C@@H]5CCCN5C(=O)[C@@H](NC(=O)O[C@H]5CCOC5)C(C)C)nc4c3)ccc2[nH]1` [Compound 47, bis((S)-tetrahydrofuran-3-yl)-(2S,2′S)-1,1′-((2S,2′S)-2,2′-(5,5′-(thiophene-2,3-diyl)bis(1H-benzo[d]imidazole-5,2-diyl))bis(pyrrolidine-2,1-diyl))bis(3-methyl-1-oxobutane-2,1-diyl)dicarbamate]: the EC50 lay within 5 to 5000 nM.
The figure for `CC(C)(C)OC(=O)N1CCCC[C@H]1c1nc2cc(C#Cc3ccc4nc([C@@H]5CSCN5C(=O)OC(C)(C)C)[nH]c4c3)ccc2[nH]1` [Compound 48] is greater than 5000 nM.
On to `O=C(OCc1ccccc1)N1CCCC[C@H]1c1nc2cc(C#Cc3ccc4nc([C@@H]5CCCN5C(=O)OCc5ccccc5)[nH]c4c3)ccc2[nH]1` [Compound 49], for which the EC50 lay in the range of 5 to 5000 nM.
The result for `COC(=O)N[C@@H](C)C(=O)N1CCC[C@H]1c1nc2cc(C#Cc3ccc4[nH]c([C@@H]5CCCN5C(=O)[C@H](C)NC(=O)OC)nc4c3)ccc2[nH]1` [Compound 50] reads no more than 5 nM.
Turning to `O=C(NC1CC1)c1nc2cc(C#Cc3ccc4[nH]c([C@@H]5CCCN5C(=O)OCc5ccccc5)nc4c3)ccc2[nH]1` [Compound 51], the EC50 is 5 to 5000 nM.
